Test results published in the kinase profiling compilation of Christmann-Franck et al. (2016).
Blank lines part the entries; values can stand above or below the compound they belong to.

Tests used:
Experiment in all cases: radiometric filter-binding kinase assay, Kinase HotSpot
Conditions in all cases: compound 0.5 µM; ATP 10 µM
PRKD1 (human) = PRKD1 (human) (UniProt Q15139)
TAOK2 (human) = TAOK2 (human) (UniProt Q9UL54)
MAP4K4 (human) = MAP4K4 (human) (UniProt O95819)
FYN (human) = FYN (human) (UniProt P06241)
ITK (human) = ITK (human) (UniProt Q08881)
MYLK (human) = MYLK (human) (UniProt Q15746)
PRKACA (human) = PRKACA (human) (UniProt P17612)
EPHA8 (human) = EPHA8 (human) (UniProt P29322)
Chain of EPHA8 (human) (P29322 whole entry, looked up): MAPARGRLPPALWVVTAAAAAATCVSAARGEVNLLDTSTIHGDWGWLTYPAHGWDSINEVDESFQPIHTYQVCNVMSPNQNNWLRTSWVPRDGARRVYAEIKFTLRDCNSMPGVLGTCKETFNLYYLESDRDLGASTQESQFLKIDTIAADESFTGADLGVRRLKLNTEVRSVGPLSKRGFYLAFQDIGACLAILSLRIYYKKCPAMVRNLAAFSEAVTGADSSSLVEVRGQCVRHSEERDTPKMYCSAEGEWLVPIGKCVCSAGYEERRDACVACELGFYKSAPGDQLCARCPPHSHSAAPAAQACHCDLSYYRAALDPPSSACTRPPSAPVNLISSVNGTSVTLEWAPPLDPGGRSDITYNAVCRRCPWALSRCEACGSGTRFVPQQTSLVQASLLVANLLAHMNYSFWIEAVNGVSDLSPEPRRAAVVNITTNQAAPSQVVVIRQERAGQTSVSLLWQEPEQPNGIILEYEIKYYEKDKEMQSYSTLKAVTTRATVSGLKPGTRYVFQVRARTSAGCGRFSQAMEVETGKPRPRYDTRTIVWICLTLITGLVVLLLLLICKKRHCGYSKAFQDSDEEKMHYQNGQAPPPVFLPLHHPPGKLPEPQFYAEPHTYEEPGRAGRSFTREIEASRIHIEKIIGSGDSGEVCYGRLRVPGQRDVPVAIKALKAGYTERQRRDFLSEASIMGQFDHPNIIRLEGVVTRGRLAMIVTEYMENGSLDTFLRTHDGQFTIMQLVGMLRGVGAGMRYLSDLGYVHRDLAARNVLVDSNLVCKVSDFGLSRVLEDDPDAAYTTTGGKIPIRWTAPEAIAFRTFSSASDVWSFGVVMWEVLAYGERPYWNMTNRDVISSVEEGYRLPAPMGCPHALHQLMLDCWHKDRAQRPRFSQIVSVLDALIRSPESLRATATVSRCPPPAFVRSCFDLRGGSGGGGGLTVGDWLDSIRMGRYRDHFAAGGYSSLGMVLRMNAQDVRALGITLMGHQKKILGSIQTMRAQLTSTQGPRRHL

STK17A (human) = STK17A (human) (UniProt Q9UEE5)
PRKD2 (human) = PRKD2 (human) (UniProt Q9BZL6)
PRKCD (human) = PRKCD (human) (UniProt Q05655)
FGFR1 (human) = FGFR1 (human) (UniProt P11362)
STK25 (human) = STK25 (human) (UniProt O00506)
Chain of STK25 (human) (O00506 whole entry, looked up): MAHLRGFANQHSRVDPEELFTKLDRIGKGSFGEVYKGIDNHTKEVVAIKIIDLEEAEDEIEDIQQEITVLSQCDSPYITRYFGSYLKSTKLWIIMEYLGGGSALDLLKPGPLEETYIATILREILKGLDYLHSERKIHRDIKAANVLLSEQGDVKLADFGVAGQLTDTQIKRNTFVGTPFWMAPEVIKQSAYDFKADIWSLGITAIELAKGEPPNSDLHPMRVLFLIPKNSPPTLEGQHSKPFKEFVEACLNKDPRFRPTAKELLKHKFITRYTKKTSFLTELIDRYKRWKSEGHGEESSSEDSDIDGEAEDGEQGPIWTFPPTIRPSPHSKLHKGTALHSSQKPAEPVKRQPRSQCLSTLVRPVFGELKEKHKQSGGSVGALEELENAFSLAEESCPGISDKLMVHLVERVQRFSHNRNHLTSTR

HIPK1 (human) = HIPK1 (human) (UniProt Q86Z02)
ADRBK1 (human) = ADRBK1 (human) (UniProt P25098)
PTK6 (human) = PTK6 (human) (UniProt Q13882)
STK16 (human) = STK16 (human) (UniProt O75716)
EPHA4 (human) = EPHA4 (human) (UniProt P54764)
MAP2K1 (human) = MAP2K1 (human) (UniProt Q02750)
HIPK2 (human) = HIPK2 (human) (UniProt Q9H2X6)
CSNK1G2 (human) = CSNK1G2 (human) (UniProt P78368)
CDK7 CCNH MNAT1 (human) = CDK7 CCNH MNAT1 (human) (UniProt P50613+P51948+P51946)
Chain of CDK7 CCNH MNAT1 (human) (P50613 whole entry, looked up): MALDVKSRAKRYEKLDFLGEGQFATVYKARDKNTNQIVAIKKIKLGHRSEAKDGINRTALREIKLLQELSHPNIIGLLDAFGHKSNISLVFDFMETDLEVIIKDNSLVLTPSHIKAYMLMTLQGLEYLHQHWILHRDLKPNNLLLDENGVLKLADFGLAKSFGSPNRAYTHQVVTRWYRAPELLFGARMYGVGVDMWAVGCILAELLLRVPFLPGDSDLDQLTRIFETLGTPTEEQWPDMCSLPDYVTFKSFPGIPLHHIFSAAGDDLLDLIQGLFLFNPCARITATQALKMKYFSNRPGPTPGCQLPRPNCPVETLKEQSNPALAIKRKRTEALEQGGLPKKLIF
Chain of CDK7 CCNH MNAT1 (human) (P51946 whole entry, looked up): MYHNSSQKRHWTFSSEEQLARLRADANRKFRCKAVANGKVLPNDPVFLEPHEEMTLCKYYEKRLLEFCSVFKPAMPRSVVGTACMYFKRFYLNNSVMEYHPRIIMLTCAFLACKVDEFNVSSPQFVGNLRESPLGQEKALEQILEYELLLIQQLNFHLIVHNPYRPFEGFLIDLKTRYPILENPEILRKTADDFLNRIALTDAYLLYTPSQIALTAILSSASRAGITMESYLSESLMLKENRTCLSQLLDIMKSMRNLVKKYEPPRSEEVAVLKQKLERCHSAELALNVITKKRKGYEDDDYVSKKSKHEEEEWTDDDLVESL
Chain of CDK7 CCNH MNAT1 (human) (P51948 whole entry, looked up): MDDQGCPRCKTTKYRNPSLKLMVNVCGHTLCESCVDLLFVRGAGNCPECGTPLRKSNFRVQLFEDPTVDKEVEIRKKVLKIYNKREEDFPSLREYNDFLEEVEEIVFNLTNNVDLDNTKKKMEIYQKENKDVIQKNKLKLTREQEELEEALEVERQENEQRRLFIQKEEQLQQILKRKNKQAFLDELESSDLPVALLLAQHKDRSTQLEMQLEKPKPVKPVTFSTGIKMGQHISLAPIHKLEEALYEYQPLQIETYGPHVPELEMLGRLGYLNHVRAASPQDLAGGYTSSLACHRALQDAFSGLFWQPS

PKN2 (human) = PKN2 (human) (UniProt Q16513)
CDK3 CCNE1 (human) = CDK3 CCNE1 (human) (UniProt Q00526+P24864)
GSK3A (human) = GSK3A (human) (UniProt P49840)
CDC42BPA (human) = CDC42BPA (human) (UniProt Q5VT25)
SGK3 (human) = SGK3 (human) (UniProt Q96BR1)
RIPK2 (human) = RIPK2 (human) (UniProt O43353)
STK10 (human) = STK10 (human) (UniProt O94804)
YES1 (human) = YES1 (human) (UniProt P07947)
LTK (human) = LTK (human) (UniProt P29376)
AKT1 (human) = AKT1 (human) (UniProt P31749)
Chain of AKT1 (human) (P31749 whole entry, looked up): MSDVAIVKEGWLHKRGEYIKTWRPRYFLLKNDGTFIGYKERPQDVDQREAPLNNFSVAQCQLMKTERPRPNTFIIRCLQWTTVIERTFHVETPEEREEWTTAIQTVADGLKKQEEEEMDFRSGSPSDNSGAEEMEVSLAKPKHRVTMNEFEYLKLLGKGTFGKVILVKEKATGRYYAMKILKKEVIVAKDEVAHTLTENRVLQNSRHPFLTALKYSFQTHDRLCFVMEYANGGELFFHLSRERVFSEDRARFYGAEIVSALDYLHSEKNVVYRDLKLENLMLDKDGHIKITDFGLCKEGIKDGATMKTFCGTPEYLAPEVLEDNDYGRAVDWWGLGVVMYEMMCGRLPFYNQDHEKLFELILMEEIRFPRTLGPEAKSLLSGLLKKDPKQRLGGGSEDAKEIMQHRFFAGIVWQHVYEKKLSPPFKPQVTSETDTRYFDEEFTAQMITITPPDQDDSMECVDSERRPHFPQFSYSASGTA

RPS6KB1 (human) = RPS6KB1 (human) (UniProt P23443)
CHEK1 (human) = CHEK1 (human) (UniProt O14757)
CDK2 CCNE1 (human) = CDK2 CCNE1 (human) (UniProt P24941+P24864)
MST4 (human) = MST4 (human) (UniProt Q9P289)
TAOK3 (human) = TAOK3 (human) (UniProt Q9H2K8)
NUAK2 (human) = NUAK2 (human) (UniProt Q9H093)
PAK7 (human) = PAK7 (human) (UniProt Q9P286)
EPHA2 (human) = EPHA2 (human) (UniProt P29317)
PRKD3 (human) = PRKD3 (human) (UniProt O94806)
STK11 (human) = STK11 (human) (UniProt Q15831)

Chain of TAOK2 (human) (Q9UL54 whole entry, looked up): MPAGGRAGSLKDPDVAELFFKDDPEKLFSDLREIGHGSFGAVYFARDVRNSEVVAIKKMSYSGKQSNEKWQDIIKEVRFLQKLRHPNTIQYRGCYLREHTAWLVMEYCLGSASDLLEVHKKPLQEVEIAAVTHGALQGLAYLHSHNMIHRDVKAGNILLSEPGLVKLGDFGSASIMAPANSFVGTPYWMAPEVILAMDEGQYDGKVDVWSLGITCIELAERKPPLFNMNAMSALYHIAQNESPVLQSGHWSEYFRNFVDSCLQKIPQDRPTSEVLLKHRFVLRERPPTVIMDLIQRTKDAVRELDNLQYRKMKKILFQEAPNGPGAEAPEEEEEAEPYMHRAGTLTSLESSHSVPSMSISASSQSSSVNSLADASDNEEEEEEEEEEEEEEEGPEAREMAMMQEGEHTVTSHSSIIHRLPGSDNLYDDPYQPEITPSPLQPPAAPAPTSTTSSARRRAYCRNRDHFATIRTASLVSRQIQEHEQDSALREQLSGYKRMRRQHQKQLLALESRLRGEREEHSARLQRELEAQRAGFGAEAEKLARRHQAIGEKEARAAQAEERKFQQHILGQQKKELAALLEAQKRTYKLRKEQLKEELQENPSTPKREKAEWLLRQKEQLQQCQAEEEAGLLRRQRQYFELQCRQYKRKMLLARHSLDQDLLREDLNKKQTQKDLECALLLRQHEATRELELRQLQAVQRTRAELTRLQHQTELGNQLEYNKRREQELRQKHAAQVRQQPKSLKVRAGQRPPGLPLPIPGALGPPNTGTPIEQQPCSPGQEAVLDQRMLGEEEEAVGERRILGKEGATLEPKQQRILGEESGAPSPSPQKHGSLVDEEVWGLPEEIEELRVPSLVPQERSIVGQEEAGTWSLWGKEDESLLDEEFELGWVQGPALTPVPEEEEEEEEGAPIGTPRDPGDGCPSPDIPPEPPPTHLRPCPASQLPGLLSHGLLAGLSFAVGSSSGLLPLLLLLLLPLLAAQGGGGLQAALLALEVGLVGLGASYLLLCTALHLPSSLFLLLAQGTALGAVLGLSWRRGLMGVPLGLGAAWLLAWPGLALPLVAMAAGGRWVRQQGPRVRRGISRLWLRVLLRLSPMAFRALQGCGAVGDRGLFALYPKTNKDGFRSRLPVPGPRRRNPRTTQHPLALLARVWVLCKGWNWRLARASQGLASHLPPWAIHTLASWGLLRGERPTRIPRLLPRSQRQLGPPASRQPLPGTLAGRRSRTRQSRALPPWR
Chain of PRKD1 (human) (Q15139 whole entry, looked up): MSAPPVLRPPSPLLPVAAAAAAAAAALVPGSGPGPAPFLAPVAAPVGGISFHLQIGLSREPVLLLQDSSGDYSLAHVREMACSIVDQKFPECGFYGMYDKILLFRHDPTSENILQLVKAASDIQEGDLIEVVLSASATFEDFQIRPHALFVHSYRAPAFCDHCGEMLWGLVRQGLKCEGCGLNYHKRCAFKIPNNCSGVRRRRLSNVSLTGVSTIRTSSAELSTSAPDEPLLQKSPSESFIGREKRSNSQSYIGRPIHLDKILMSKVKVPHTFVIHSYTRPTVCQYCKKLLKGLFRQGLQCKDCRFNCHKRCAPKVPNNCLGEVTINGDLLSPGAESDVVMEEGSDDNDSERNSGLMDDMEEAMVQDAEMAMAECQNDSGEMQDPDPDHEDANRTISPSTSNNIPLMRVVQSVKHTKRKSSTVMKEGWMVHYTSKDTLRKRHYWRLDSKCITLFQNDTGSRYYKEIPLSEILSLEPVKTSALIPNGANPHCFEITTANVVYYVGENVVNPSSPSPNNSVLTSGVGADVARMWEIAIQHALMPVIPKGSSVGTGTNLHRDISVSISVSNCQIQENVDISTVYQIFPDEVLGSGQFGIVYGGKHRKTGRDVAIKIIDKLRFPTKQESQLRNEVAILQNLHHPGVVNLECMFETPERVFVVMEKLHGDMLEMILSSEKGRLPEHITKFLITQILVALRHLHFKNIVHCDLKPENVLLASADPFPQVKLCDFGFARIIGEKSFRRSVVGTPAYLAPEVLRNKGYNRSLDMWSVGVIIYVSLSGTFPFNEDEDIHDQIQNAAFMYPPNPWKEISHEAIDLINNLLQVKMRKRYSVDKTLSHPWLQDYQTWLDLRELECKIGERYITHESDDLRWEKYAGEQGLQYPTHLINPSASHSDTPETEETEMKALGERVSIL

Compound: CN(C)C[C@H]1CCn2c(c(C3=C(c4cn(C)c5ccccc45)C(=O)NC3=O)c3ccccc32)C1
residual activity (PRKD1 (human)): 101%
residual activity (TAOK2 (human)): 87.7%
residual activity (MAP4K4 (human)): 82.5%
residual activity (FYN (human)): 92.8%
residual activity (ITK (human)): 94.9%
residual activity (MYLK (human)): 84%
residual activity (PRKACA (human)): 87.2%
residual activity (EPHA8 (human)): 102%
residual activity (STK17A (human)): 87.6%
residual activity (PRKD2 (human)): 97.6%
residual activity (PRKCD (human)): 8.11%
residual activity (FGFR1 (human)): 87.8%
residual activity (STK25 (human)): 96%
residual activity (HIPK1 (human)): 101%
residual activity (ADRBK1 (human)): 103%
residual activity (PTK6 (human)): 90.4%
residual activity (STK16 (human)): 109%
residual activity (EPHA4 (human)): 103%
residual activity (MAP2K1 (human)): 98.8%
residual activity (HIPK2 (human)): 94.1%
residual activity (CSNK1G2 (human)): 97%
residual activity (CDK7 CCNH MNAT1 (human)): 83%
residual activity (PKN2 (human)): 87%
residual activity (CDK3 CCNE1 (human)): 62.4%
residual activity (GSK3A (human)): 14.2%
residual activity (CDC42BPA (human)): 98.1%
residual activity (SGK3 (human)): 95%
residual activity (RIPK2 (human)): 94.4%
residual activity (STK10 (human)): 26.6%
residual activity (YES1 (human)): 95.3%
residual activity (LTK (human)): 101%
residual activity (AKT1 (human)): 98.7%
residual activity (RPS6KB1 (human)): 20%
residual activity (CHEK1 (human)): 69.8%
residual activity (CDK2 CCNE1 (human)): 64.4%
residual activity (MST4 (human)): 78%
residual activity (TAOK3 (human)): 96.4%
residual activity (NUAK2 (human)): 121%
residual activity (PAK7 (human)): 100%
residual activity (EPHA2 (human)): 102%
residual activity (PRKD3 (human)): 93.6%
residual activity (STK11 (human)): 91.9%

Compound: O=C(O)/C=C/c1cc(Br)c(Br)c(Br)c1Br
residual activity (PRKD1 (human)): 88.9%
residual activity (TAOK2 (human)): 88.9%
residual activity (MAP4K4 (human)): 63.5%
residual activity (FYN (human)): 97.9%
residual activity (ITK (human)): 100%
residual activity (MYLK (human)): 83.3%
residual activity (PRKACA (human)): 98.4%
residual activity (EPHA8 (human)): 99.1%
residual activity (STK17A (human)): 84.6%
residual activity (PRKD2 (human)): 71.6%
residual activity (PRKCD (human)): 93.9%
residual activity (FGFR1 (human)): 95.2%
residual activity (STK25 (human)): 87.2%
residual activity (HIPK1 (human)): 99.6%
residual activity (ADRBK1 (human)): 97.9%
residual activity (PTK6 (human)): 95%
residual activity (STK16 (human)): 90.4%
residual activity (EPHA4 (human)): 88.8%
residual activity (MAP2K1 (human)): 95.8%
residual activity (HIPK2 (human)): 82.2%
residual activity (CSNK1G2 (human)): 90.1%
residual activity (CDK7 CCNH MNAT1 (human)): 88.6%
residual activity (PKN2 (human)): 95.6%
residual activity (CDK3 CCNE1 (human)): 98.3%
residual activity (GSK3A (human)): 91.5%
residual activity (CDC42BPA (human)): 98.5%
residual activity (SGK3 (human)): 85.7%
residual activity (RIPK2 (human)): 88.4%
residual activity (STK10 (human)): 85.8%
residual activity (YES1 (human)): 96.9%
residual activity (LTK (human)): 94.5%
residual activity (AKT1 (human)): 97.4%
residual activity (RPS6KB1 (human)): 91.4%
residual activity (CHEK1 (human)): 135%
residual activity (CDK2 CCNE1 (human)): 89.4%
residual activity (MST4 (human)): 88.7%
residual activity (TAOK3 (human)): 85.3%
residual activity (NUAK2 (human)): 98.9%
residual activity (PAK7 (human)): 90.6%
residual activity (EPHA2 (human)): 97.9%
residual activity (PRKD3 (human)): 87.9%
residual activity (STK11 (human)): 42.8%

residual activity (PRKD1 (human)): 82.1%
residual activity (TAOK2 (human)): 84.4%
residual activity (MAP4K4 (human)): 30.2%
residual activity (FYN (human)): 20.9%
residual activity (ITK (human)): 76.8%
residual activity (MYLK (human)): 74.2%
residual activity (PRKACA (human)): 109%
residual activity (EPHA8 (human)): 96.3%
residual activity (STK17A (human)): 72.7%
residual activity (PRKD2 (human)): 87.8%
residual activity (PRKCD (human)): 97%
residual activity (FGFR1 (human)): 68.8%
residual activity (STK25 (human)): 80.9%
residual activity (HIPK1 (human)): 83%
residual activity (ADRBK1 (human)): 108%
residual activity (PTK6 (human)): 91.2%
residual activity (STK16 (human)): 76.5%
residual activity (EPHA4 (human)): 87.6%
residual activity (MAP2K1 (human)): 84.9%
residual activity (HIPK2 (human)): 99.1%
residual activity (CSNK1G2 (human)): 89.7%
residual activity (CDK7 CCNH MNAT1 (human)): 91.1%
residual activity (PKN2 (human)): 85.4%
residual activity (CDK3 CCNE1 (human)): 36.3%
residual activity (GSK3A (human)): 6.49%
residual activity (CDC42BPA (human)): 85.8%
residual activity (SGK3 (human)): 100%
residual activity (RIPK2 (human)): 108%
residual activity (STK10 (human)): 99.3%
residual activity (YES1 (human)): 46.4%
residual activity (LTK (human)): 83.3%
residual activity (AKT1 (human)): 99.6%
residual activity (RPS6KB1 (human)): 95.4%
residual activity (CHEK1 (human)): 100%
residual activity (CDK2 CCNE1 (human)): 24.7%
residual activity (MST4 (human)): 78.7%
residual activity (TAOK3 (human)): 72.4%
residual activity (NUAK2 (human)): 85.2%
residual activity (PAK7 (human)): 89.1%
residual activity (EPHA2 (human)): 95.8%
residual activity (PRKD3 (human)): 84.9%
residual activity (STK11 (human)): 73.6%
Compound: CC(=O)O/N=C1\C(=C2\C(=O)Nc3cc(Br)ccc32)Nc2ccccc21

Compound: CC(C)[C@H](CO)Nc1nc(Nc2cc(N)cc(Cl)c2)c2ncn(C(C)C)c2n1
residual activity (PRKD1 (human)): 94.2%
residual activity (TAOK2 (human)): 82.2%
residual activity (MAP4K4 (human)): 86.1%
residual activity (FYN (human)): 18.9%
residual activity (ITK (human)): 80.2%
residual activity (MYLK (human)): 81.3%
residual activity (PRKACA (human)): 101%
residual activity (EPHA8 (human)): 92.5%
residual activity (STK17A (human)): 96.3%
residual activity (PRKD2 (human)): 103%
residual activity (PRKCD (human)): 87.6%
residual activity (FGFR1 (human)): 76.7%
residual activity (STK25 (human)): 81.8%
residual activity (HIPK1 (human)): 99.2%
residual activity (ADRBK1 (human)): 83%
residual activity (PTK6 (human)): 85.6%
residual activity (STK16 (human)): 74%
residual activity (EPHA4 (human)): 61.4%
residual activity (MAP2K1 (human)): 91.3%
residual activity (HIPK2 (human)): 94.3%
residual activity (CSNK1G2 (human)): 35.2%
residual activity (CDK7 CCNH MNAT1 (human)): 54.7%
residual activity (PKN2 (human)): 98%
residual activity (CDK3 CCNE1 (human)): 31.9%
residual activity (GSK3A (human)): 101%
residual activity (CDC42BPA (human)): 99.4%
residual activity (SGK3 (human)): 99.9%
residual activity (RIPK2 (human)): 87.7%
residual activity (STK10 (human)): 55.6%
residual activity (YES1 (human)): 7.03%
residual activity (LTK (human)): 103%
residual activity (AKT1 (human)): 117%
residual activity (RPS6KB1 (human)): 95.5%
residual activity (CHEK1 (human)): 96.2%
residual activity (MST4 (human)): 67.8%
residual activity (TAOK3 (human)): 86.9%
residual activity (NUAK2 (human)): 81.4%
residual activity (PAK7 (human)): 44.3%
residual activity (EPHA2 (human)): 67.5%
residual activity (PRKD3 (human)): 89.2%
residual activity (STK11 (human)): 60.3%
